SMILES strings stand for the structures. Where two headings read alike, the source gives them in different places. A value given as a limit tells only on which side of the number the result lay.

Data set [1] concerns MCF-7. Kind of data set: MTT anti-proliferative assay toward MCF-7. Particulars: Homo sapiens, MCF7, 48 h, read-out: IC50 toward MCF-7. For orientation: Formazan colour is commonly taken as a measure of viable cells.
Protocol: Anti-proliferative activities were done using the MTT colorimetric assay [58]. Cell viability was assessed after 48 h, and the viability was calculated relative to the control [59]
Experimental of biological evaluations
Anti-proliferative activities were done using MTT colorimetric assay.
Both cell lines were provided with 10% fetal bovine serum (FBS, Sigma-Aldrich, MO, USA) and 1% penicillin-streptomycin (Lonza, Belgium). Cells were incubated following standard tissue culture work. Cell viability was assessed after 48 h using MTT solution (Promega, USA). Absorbance was subsequently measured (at 570 nm) using ELISA microplate reader (BIO-RAD, model iMark, Japan). The viability was calculated relative to control.
EGFR and HER2 enzyme inhibition
(§1) Measurement of potential EGFR/ HER2 inhibitory activities was performed using EGFR
(§2) following equation was used to determine the proportion of autophosphorylation inhibition by
concentrations for each compound.
Cell cycle analysis and apoptotic assay
MCF-7 cells were seeded into 6-well culture plates (3-5× 10^5 cells/well) and incubated
48 h. Subsequently, cells and medium supernatants were gathered and washed with ice-cold PBS.
The cells were then suspended in 100 µL of the annexin binding buffer solution, which was described as "25 mM CaCl 2, 1.4 M NaCl, and 0.1 M Hepes/NaOH, pH 7.4”. The cell incubation and addition of Annexin V-FITC solution, and propidium iodide (PI) were done according to the reported procedure. Next, the Cytoflex FACS equipment was used to obtain the stained cells. The program CytExpert was used to analyze the data.
Data set [2] deals with MCF-7. Conditions: cited from earlier work.
The subject of the next data set is EGFR. Conditions: cited from earlier work.
The target of another data set is HER2 Kinase (Homo sapiens, UniProt P04626). Kind of data set: HER2 kinase inhibitory assay (BPS Bioscience kit).
Chain of HER2 Kinase (P04626 23-1255): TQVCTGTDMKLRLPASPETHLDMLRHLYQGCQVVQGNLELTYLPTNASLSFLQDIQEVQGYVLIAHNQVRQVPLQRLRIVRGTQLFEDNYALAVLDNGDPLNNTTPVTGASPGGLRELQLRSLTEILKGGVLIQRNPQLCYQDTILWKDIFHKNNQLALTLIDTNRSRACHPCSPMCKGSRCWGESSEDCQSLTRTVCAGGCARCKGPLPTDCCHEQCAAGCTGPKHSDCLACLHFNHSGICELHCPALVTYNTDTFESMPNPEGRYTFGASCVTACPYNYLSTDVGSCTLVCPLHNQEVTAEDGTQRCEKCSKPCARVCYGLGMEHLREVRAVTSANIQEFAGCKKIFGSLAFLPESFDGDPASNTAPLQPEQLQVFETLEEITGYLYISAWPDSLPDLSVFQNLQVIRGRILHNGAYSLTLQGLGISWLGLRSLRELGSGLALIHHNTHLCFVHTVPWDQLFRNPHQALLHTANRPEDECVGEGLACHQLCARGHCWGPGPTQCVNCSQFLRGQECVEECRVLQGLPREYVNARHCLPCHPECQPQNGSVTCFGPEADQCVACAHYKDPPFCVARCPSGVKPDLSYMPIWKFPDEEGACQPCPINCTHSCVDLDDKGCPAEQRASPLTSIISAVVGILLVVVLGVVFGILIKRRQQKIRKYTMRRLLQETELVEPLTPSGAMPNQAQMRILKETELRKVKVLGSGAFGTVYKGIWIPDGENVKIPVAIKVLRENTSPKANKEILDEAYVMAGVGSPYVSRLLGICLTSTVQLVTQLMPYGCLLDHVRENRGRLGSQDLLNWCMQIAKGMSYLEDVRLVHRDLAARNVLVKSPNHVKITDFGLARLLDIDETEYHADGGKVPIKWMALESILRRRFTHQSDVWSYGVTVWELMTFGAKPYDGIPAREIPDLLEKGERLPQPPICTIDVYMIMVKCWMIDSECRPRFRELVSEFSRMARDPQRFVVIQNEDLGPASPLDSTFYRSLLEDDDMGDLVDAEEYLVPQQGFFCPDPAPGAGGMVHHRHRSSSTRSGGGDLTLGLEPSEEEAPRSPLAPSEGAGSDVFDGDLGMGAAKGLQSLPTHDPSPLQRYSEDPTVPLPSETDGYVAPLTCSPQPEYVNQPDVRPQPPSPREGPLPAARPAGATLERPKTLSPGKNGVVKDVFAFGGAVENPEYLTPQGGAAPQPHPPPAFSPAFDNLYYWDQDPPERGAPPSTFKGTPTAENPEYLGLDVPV
For a further data set, the system named is MCF-10A. Kind of data set: MTT cytotoxicity assay toward MCF-10A. Particulars: Homo sapiens, 48 h. The class given is cell-based.
In another data set the target is EGFR Kinase (Homo sapiens, UniProt P00533). The experiment in a line: EGFR kinase inhibitory assay (BPS Bioscience kit).
Chain of EGFR Kinase (P00533 25-1210): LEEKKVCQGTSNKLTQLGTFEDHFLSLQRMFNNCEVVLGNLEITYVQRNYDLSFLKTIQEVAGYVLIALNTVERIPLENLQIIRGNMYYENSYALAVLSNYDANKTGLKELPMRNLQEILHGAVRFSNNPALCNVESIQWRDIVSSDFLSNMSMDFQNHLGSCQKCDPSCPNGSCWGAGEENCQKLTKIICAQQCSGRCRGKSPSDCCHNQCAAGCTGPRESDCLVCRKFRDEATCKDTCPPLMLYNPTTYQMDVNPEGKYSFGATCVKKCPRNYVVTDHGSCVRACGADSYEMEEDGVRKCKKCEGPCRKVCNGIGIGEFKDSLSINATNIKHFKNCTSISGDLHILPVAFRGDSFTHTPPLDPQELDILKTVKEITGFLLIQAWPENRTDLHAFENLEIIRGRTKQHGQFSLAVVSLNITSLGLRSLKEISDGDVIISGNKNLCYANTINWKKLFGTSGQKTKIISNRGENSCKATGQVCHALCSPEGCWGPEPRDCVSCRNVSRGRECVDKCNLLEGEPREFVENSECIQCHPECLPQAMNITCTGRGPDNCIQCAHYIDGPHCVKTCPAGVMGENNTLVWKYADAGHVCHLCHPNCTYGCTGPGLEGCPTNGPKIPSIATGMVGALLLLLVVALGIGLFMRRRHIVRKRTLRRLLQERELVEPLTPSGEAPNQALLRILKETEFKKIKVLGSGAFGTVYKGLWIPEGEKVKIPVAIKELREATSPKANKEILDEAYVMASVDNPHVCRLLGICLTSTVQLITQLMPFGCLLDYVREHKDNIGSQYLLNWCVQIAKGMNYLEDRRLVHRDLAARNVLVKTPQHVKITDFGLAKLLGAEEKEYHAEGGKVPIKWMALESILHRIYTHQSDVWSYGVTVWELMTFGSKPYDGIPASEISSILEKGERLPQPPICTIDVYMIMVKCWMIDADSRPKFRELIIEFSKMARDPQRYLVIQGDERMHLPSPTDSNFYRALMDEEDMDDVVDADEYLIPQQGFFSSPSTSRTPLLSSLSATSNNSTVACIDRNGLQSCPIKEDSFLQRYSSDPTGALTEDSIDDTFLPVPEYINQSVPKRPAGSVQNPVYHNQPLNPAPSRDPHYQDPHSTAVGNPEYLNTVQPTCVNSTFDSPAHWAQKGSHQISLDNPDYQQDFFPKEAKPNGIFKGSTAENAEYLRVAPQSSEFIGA
Data set [3] concerns MCF-7. Kind of data set: Cell cycle analysis in MCF-7. It counts as cell-based. Particulars: for DNA Content %G0-G1 / DNA Content %G2/M / DNA Content %S: MCF-7, compound at its IC50, 48 h.
The next data set concerns MCF-7 cells. Kind of data set: Annexin V/PI apoptosis analysis in MCF-7. It counts as cell-based. Particulars: MCF-7, compound at its IC50, 48 h.
A further data set has as its system A549. Also noted: method as in PMID 21802290. Conditions: cited from earlier work.
The next data set deals with HER2. Particulars: cited from earlier work.
Another data set relates to T-47D cell line. Also noted: method as in PMID 37049966. Conditions: cited from earlier work.

Protocol for EGFR Kinase: Experimental of biological evaluations
EGFR and HER2 enzyme inhibition
as §1, §2
concentrations for each compound.
Protocol for HER2 Kinase: Experimental of biological evaluations
EGFR and HER2 enzyme inhibition
as §1, §2
concentrations for each compound.

As to `COc1ccc(C2=NN(C3=NC(=O)C(=C4C(=O)Nc5ccccc54)S3)C(c3ccc(Cl)cc3)C2)cc1OC` (centres unmarked) [Compound 8b, 2-(5-(4-Chlorophenyl)-3-(3,4-dimethoxyphenyl)-4,5-dihydro-1H-pyrazol-1-yl)-5-(2-oxoindolin-3-ylidene)thiazol-4(5H)-one], the melting point is more than 300 °C. Further, in the data set with MCF-7 [1], the IC50 was found to be 19.5 ± 0.27 µM.

Consider `COc1ccc2nc(Cl)c(C3CC(c4ccc(C)cc4)=NN3c3nc(-c4ccc(F)cc4)cs3)cc2c1` (centres unmarked) [V], for which the values for the IC50 in the data set with MCF-7 [2] and in the data set with EGFR were 0.227 µM and 0.031 µM, respectively.

`COc1ccc(C2=NN(C3=NC(=O)CS3)C(c3ccc(Cl)cc3)C2)cc1OC` (centres unmarked) [Compound 6b, 2-(5-(4-Chlorophenyl)-3-(3,4-dimethoxyphenyl)-4,5-dihydro-1H-pyrazol-1-yl)thiazol-4(5H)-one] yielded a melting point of 208 to 210 °C. This compound also came in with an IC50 at HER2 Kinase of 0.081 ± 0.006 µM. In the data set on MCF-10A, the IC50 was found to be 32.8 ± 1.27 µM. For the same compound, in the data set with MCF-7 [1], the IC50 worked out at 5.64 ± 0.11 µM. In addition, on EGFR Kinase, the midpoint of inhibition, the IC50, lay at 0.026 ± 0.002 µM.

The compound `COc1ccc(C2CC(c3ccc(OC)c(OC)c3)=NN2C2=NC(=O)CS2)cc1` (centres unmarked) [Compound 6a, 2-(3-(3,4-Dimethoxyphenyl)-5-(4-methoxyphenyl)-4,5-dihydro-1H-pyrazol-1-yl)thiazol-4(5H)-one] came in with an IC50 on HER2 Kinase of 0.047 ± 0.008 µM. For the same compound, the IC50 with MCF-10A is not below 50 µM. In addition, in the data set on MCF-7 [3], the “DNA Content %G0-G1” value is reported as 69.82%, the “DNA Content %G2/M” value is on record as 8.12% and the “DNA Content %S” value was determined as 22.06%. In the data set with MCF-7 cells, the “Apoptosis Early” value is given as 28.17%, the “Apoptosis Late” value stood at 17.98% and the Necrosis turned out to be 4.88%. Moreover, the IC50 in the data set on MCF-7 [1] amounted to 4.08 ± 0.08 µM. This compound came in with an IC50 against EGFR Kinase of 0.024 ± 0.005 µM.

With `COc1ccc(C2CC(c3ccc(Cl)cc3Cl)=NN2c2nc(C)c(C(=O)Nc3ccccc3)s2)cc1OC` (centres unmarked) [II], the IC50 in the data set with EGFR was 0.032 µM; in the data set with A549, 2.92 µM.

For `Cc1ccc(C2=NN(c3nc(-c4ccc(Cl)cc4)cs3)C(c3ccc(F)cc3)C2)cc1C` (centres unmarked) [I], the IC50 in the data set on MCF-7 [2] was 0.07 µM; in the data set with EGFR, 0.06 µM.

`COc1ccc(C2CC(c3ccc(OC)c(OC)c3)=NN2C2=NC(=O)C(=Cc3ccccc3)S2)cc1` (centres unmarked) [Compound 7a, 5-Benzylidene-2-(3-(3,4-dimethoxyphenyl)-5-(4-methoxyphenyl)-4,5-dihydro-1H-pyrazol-1-yl)thiazol-4(5H)-one] had a melting point of 294 to 296 °C. In addition, the IC50 with MCF-7 [1] is 17.79 ± 0.14 µM.

Consider `Brc1ccc(C2=NN(c3nc(-c4ccc(Br)cc4)cs3)C(c3ccc4c(c3)OCO4)C2)cc1` (centres unmarked) [III], for which the 50% inhibitory concentration (IC50) in the data set with MCF-7 [2] is 0.09 µM; in the data set on HER2, 0.18 µM.

Take `COc1ccc(C2CC(c3ccc(OC)c(OC)c3)=NN2c2nc(C)c(N=Nc3ccc(S(N)(=O)=O)cc3)s2)cc1` (centres unmarked) [Compound 4b, 4-((2-(3-(3,4-Dimethoxyphenyl)-5-(4-methoxyphenyl)-4,5-dihydro-1H-pyrazol-1-yl)-4-methylthiazol-5-yl)diazenyl)benzenesulfonamide]: the melting point lay in the range of 200 to 202 °C. Also, the IC50 in the data set on MCF-7 [1] amounted to 17.12 ± 0.15 µM.

Turning to `COc1ccc(C2CC(c3ccc(OC)c(OC)c3)=NN2C2=NC(=O)C(=NNc3ccc(S(N)(=O)=O)cc3)S2)cc1` (centres unmarked) [Compound 5b, 4-(2-(2-(3-(3,4-Dimethoxyphenyl)-5-(4-methoxyphenyl)-4,5-dihydro-1H-pyrazol-1-yl)-4-oxothiazol-5(4H)-ylidene)hydrazineyl)benzenesulfonamide], the melting point fell in the range of 249 to 251 °C. Moreover, the IC50 with MCF-7 [1] amounted to 27.31 ± 0.26 µM.

`COc1ccc(C2CC(c3ccc(OC)c(OC)c3)=NN2c2nc(C)c(N=Nc3ccc(Cl)cc3)s2)cc1` (centres unmarked) [Compound 4a, 5-((4-Chlorophenyl)diazenyl)-2-(3-(3,4-dimethoxyphenyl)-5-(4-methoxyphenyl)-4,5-dihydro-1H-pyrazol-1-yl)-4-methylthiazole]: the melting point fell in the range of 192 to 194 °C. In addition, the IC50 in the data set on MCF-7 [1] was determined as 18.6 ± 0.19 µM.

In the case of `COc1ccc(C2CC(c3ccc(OC)c(OC)c3)=NN2c2nc(-c3ccccc3)cs2)cc1` (centres unmarked) [IV], the figures for the IC50 in the data set with MCF-7 [2], in the data set with EGFR and in the data set on HER2 were 7.21 µM, 0.009 µM and 0.013 µM, respectively.

Regarding `COc1ccc(C2CC(c3ccc(OC)c(OC)c3)=NN2C2=NC(=O)C(=NNc3ccc(Cl)cc3)S2)cc1` (centres unmarked) [Compound 5a, 5-(2-(4-Chlorophenyl)hydrazineylidene)-2-(3-(3,4-dimethoxyphenyl)-5-(4-methoxyphenyl)-4,5-dihydro-1H-pyrazol-1-yl)thiazol-4(5H)-one], the IC50 with MCF-7 [1] was determined as 30.24 ± 0.24 µM.

With `COc1ccc(C=C2SC(N3N=C(c4ccc(OC)c(OC)c4)CC3c3ccc(OC)cc3)=NC2=O)cc1` (centres unmarked) [Compound 7b, 2-(3-(3,4-Dimethoxyphenyl)-5-(4-methoxyphenyl)-4,5-dihydro-1H-pyrazol-1-yl)-5-(4-methoxybenzylidene)thiazol-4(5H)-one], the melting point lay in the range of 245 to 247 °C. In addition, in the data set on MCF-7 [1], the IC50 was determined as 20 ± 0.22 µM.

Compound `COc1ccc(C2CC(c3ccc(OC)c(OC)c3)=NN2c2nc(-c3cc4ccccc4oc3=O)cs2)cc1` (centres unmarked) [Compound 10a, 3-(2-(3-(3,4-Dimethoxyphenyl)-5-(4-methoxyphenyl)-4,5-dihydro-1H-pyrazol-1-yl)thiazol-4-yl)-2H-chromen-2-one] yielded an IC50 at HER2 Kinase of 0.022 ± 0.005 µM. In the data set on MCF-10A, this compound yielded an IC50 not below 50 µM. Also, in the data set on MCF-7 [3], the “DNA Content %G0-G1” value is listed as 66.41%, the “DNA Content %G2/M” value stood at 4.04% and the “DNA Content %S” value was determined as 29.55%. Also, in the data set on MCF-7 [3] (MCF-7, compound at its IC50, control 26.33%), the “cell accumulation at S phase relative to control” value stood at 1.12 folds. Further, the “cell accumulation at G0-G1 relative to control” value in the data set with MCF-7 [3] (MCF-7, compound at its IC50, control 62.59%) is reported as 1.06 folds. Besides, in the data set on MCF-7 cells, the “Apoptosis Early” value is listed as 19.22%, the “Apoptosis Late” value came out at 15.91% and the Necrosis was 7.53%. Further, the IC50 in the data set on MCF-7 [1] was found to be 3.37 ± 0.13 µM. Moreover, at EGFR Kinase, inhibition was half-maximal at 0.005 ± 0.002 µM (IC50).

The compound `COc1ccc(C=C2SC(N3N=C(c4ccc(OC)c(OC)c4)CC3c3ccc(Cl)cc3)=NC2=O)cc1` (centres unmarked) [Compound 7d, 2-(5-(4-Chlorophenyl)-3-(3,4-dimethoxyphenyl)-4,5-dihydro-1H-pyrazol-1-yl)-5-(4-methoxybenzylidene)thiazol-4(5H)-one] had a melting point of 250 to 252 °C. Besides, the IC50 in the data set with MCF-7 [1] was determined as 20.17 ± 0.19 µM.

`COc1ccc(C2=NN(c3nc(C)c(N=Nc4ccc(Cl)cc4)s3)C(c3ccc(Cl)cc3)C2)cc1OC` (centres unmarked) [Compound 4c, 2-(5-(4-Chlorophenyl)-3-(3,4-dimethoxyphenyl)-4,5-dihydro-1H-pyrazol-1-yl)-5-((4-chlorophenyl)diazenyl)-4-methylthiazole] returned a melting point of 210 to 212 °C. Moreover, the IC50 in the data set with MCF-7 [1] was found to be 18.7 ± 0.22 µM.

Compound `COc1ccc(C2=NN(C3=NC(=O)C(=NNc4ccc(S(N)(=O)=O)cc4)S3)C(c3ccc(Cl)cc3)C2)cc1OC` (centres unmarked) [Compound 5d, 4-(2-(2-(5-(4-Chlorophenyl)-3-(3,4-dimethoxyphenyl)-4,5-dihydro-1H-pyrazol-1-yl)-4-oxothiazol-5(4H)-ylidene)hydrazineyl)benzenesulfonamide] had a melting point of 292 to 294 °C. For the same compound, the IC50 in the data set with MCF-7 [1] stood at 25.7 ± 0.12 µM.

In the case of `Cc1ccc(C2=NN(C3=NC(=O)/C(=C/c4ccc(O)cc4)S3)C(c3ccc(F)cc3)C2)cc1` (centres unmarked) [VI], the IC50 in the data set on T-47D cell line was 1.15 µM; in the data set on EGFR, 0.083 µM.

With `CS(=O)(=O)CCNCc1ccc(-c2ccc3ncnc(Nc4ccc(OCc5cccc(F)c5)c(Cl)c4)c3c2)o1` [Lapatinib, reference compound], the IC50 in the data set with MCF-10A was not below 50 µM; in the data set with MCF-7 [1] it was 5.88 ± 0.04 µM.

Take `COc1ccc(C2=NN(C3=NC(=O)C(=NNc4ccc(Cl)cc4)S3)C(c3ccc(Cl)cc3)C2)cc1OC` (centres unmarked) [Compound 5c, 2-(5-(4-Chlorophenyl)-3-(3,4-dimethoxyphenyl)-4,5-dihydro-1H-pyrazol-1-yl)-5-(2-(4-chlorophenyl)hydrazineylidene)thiazol-4(5H)-one]: the melting point was 278 to 280 °C. Further, the IC50 with MCF-7 [1] was found to be 28.03 ± 0.25 µM.

In the case of `COc1ccc(C2=NN(C3=NC(=O)C(=Cc4ccccc4)S3)C(c3ccc(Cl)cc3)C2)cc1OC` (centres unmarked) [Compound 7c, 5-Benzylidene-2-(5-(4-chlorophenyl)-3-(3,4-dimethoxyphenyl)-4,5-dihydro-1H-pyrazol-1-yl)thiazol-4(5H)-one], the melting point lay in the range of 283 to 285 °C. For the same compound, in the data set on MCF-7 [1], the IC50 was 21.2 ± 0.24 µM.

In turn, `COc1ccc(C2CC(c3ccc(OC)c(OC)c3)=NN2C2=NC(=O)C(=C3C(=O)Nc4ccccc43)S2)cc1` (centres unmarked) [Compound 8a, 2-(3-(3,4-Dimethoxyphenyl)-5-(4-methoxyphenyl)-4,5-dihydro-1H-pyrazol-1-yl)-5-(2-oxoindolin-3-ylidene)thiazol-4(5H)-one] had a melting point of more than 300 °C. Moreover, the IC50 with MCF-7 [1] turned out to be 21.33 ± 0.21 µM.

Compound `COc1ccc(C2=NN(c3nc(-c4cc5ccccc5oc4=O)cs3)C(c3ccc(Cl)cc3)C2)cc1OC` (centres unmarked) [Compound 10b, 3-(2-(5-(4-Chlorophenyl)-3-(3,4-dimethoxyphenyl)-4,5-dihydro-1H-pyrazol-1-yl)thiazol-4-yl)-2H-chromen-2-one] displayed a melting point of 238 to 240 °C. Also, the IC50 against HER2 Kinase came to 0.065 ± 0.007 µM. Besides, the IC50 with MCF-10A was 27.1 ± 1.98 µM. Besides, the IC50 with MCF-7 [1] turned out to be 3.54 ± 0.07 µM. Moreover, at EGFR Kinase, the concentration for half-maximal inhibition (IC50) was found to be 0.029 ± 0.004 µM.

`COc1ccc(C2=NN(c3nc(C)c(N=Nc4ccc(S(N)(=O)=O)cc4)s3)C(c3ccc(Cl)cc3)C2)cc1OC` (centres unmarked) [Compound 4d, 4-((2-(5-(4-Chlorophenyl)-3-(3,4-dimethoxyphenyl)-4,5-dihydro-1H-pyrazol-1-yl)-4-methylthiazol-5-yl)diazenyl)benzenesulfonamide] came in with a melting point of 208 to 210 °C. Also, in the data set with MCF-7 [1], the IC50 turned out to be 17.1 ± 0.21 µM.

As usually defined, the melting point is the temperature, or range, at which the solid turns liquid. Usually IC50 stands for the concentration at which inhibition is half-maximal.

Source of the values: paper PMC10647861, “New Thiazolyl-Pyrazoline Derivatives as Potential Dual EGFR/HER2 Inhibitors: Design, Synthesis, Anticancer Activity Evaluation and In Silico Study” (Molecules, 2023).
